# Test results: patent publication US20200231638A1, “STABILIZED ANTI-MICROBIAL PEPTIDES” (priority 2015, published 2020)
# Like-named read-outs stand apart in the source and are kept apart here. Bridge positions count the residues as written; N and C are the ends. Square brackets hold non-standard residues; d marks the D form. Peptide text beside a SMILES is read from it. S5 = C=CCCC[C@](C)(N)C(=O)O; Nle = CCCC[C@H](N)C(=O)O
# Tests used:
# [1] = system: E. coli; assay type: cell-based, Escherichia coli
# Protocol: (§1) Antimicrobial Activity Assay:
# (§2) The following microbroth dilution protocol was adapted to determine the minimum inhibitory concentration (MIC) of each peptide. First, Mueller-Hinton broth (MHB) was passed through an anion exchange column to remove polyanionic species and generate refined MHB. […] Briefly, bacterial cells was grown overnight in refined MHB at 37° C. and then diluted and allowed to grow again for several hours. Serial dilutions of peptide stocks in water (10 μl) were prepared using clear round-bottom polypropylene 96-well plates. Then 90 μl of bacteria in refined MHB was added to give a final inoculum of 5×10^5 CFU/ml. The plates were then covered with porous tape to reduce evaporation, and incubated for 20-24 hours at 37° C. The MIC is the minimum peptide concentration at which no visible growth was observed.
# [2] = system: B. cereus; assay type: cell-based, Bacillus cereus
# Protocol: as §1, §2
# [3] = system: S. aureus; assay type: cell-based, Staphylococcus aureus
# Protocol: as §1, §2
# [4] = system: P. aeruginosa; assay type: cell-based, Pseudomonas aeruginosa
# Protocol: as §1, §2
# [5] = system: human red blood cells; assay type: cell-based
# Protocol: FIG. 5 is a series of line graphs depicting the hemolytic activity of magainin II and stapled analogues. Peptides were incubated with 1% (v/v) human red blood cells in phosphate-buffered solution for 1 hour at 37° C. and then the supernatant was isolated and the amount of hemoglobin released was measured at 540 nm. % hemolysis was calculated relative to an untreated control.
# Hemolytic Activity Assay:
# For the determination of hemolytic activity, human blood samples were centrifuged to isolate red blood cells (RBCs), which are then washed and suspended in phosphate-buffered saline to yield a 1% (v/v) suspension. The suspension was then added to serial dilutions of peptide stocks in water in clear round-bottom polypropylene 96-well plates and the plates were incubated for 1 hour at 37° C. After incubation, the plates were centrifuged and the supernatant was isolated to determine the amount of hemoglobin released using a spectrophotometer (570 nm), according to the equation: % Hemolysis=(Treated Absorbance−Untreated Control Absorbance)/(1% Triton-X100 Treated Absorbance−Untreated Control Absorbance). The minimum hemolytic concentration (MHC) is the peptide concentration at which there is less than 1% hemoglobin release.
Structure (SMILES),MIC E. coli [1],MIC B. cereus [2],MIC S. aureus [3],MIC P. aeruginosa [4],"% Hemolysis at 25 μg/ml ([5]; red cells of human, 1 h, 25)",% Hemolysis at 25 μg/ml [5]
"CCCC[C@H](NC(=O)[C@]1(C)CCCC=CCCC[C@](C)(NC(=O)[C@H](CCC(=O)O)NC(=O)[C@H](CCCCN)NC(=O)CNC(=O)[C@H](Cc2ccccc2)NC(=O)[C@H](CCCCN)NC(=O)[C@H](CCCCN)NC(=O)[C@H](C)NC(=O)[C@H](CO)NC(=O)[C@H](Cc2c[nH]cn2)NC(=O)[C@H](CC(C)C)NC(=O)[C@H](Cc2ccccc2)NC(=O)[C@H](CCCCN)NC(=O)CNC(=O)[C@@H](NC(=O)CN)[C@@H](C)CC)C(=O)N[C@@H](C(C)C)C(=O)NCC(=O)N[C@@H](CCC(=O)O)C(=O)N1)C(=O)N[C@@H](CC(N)=O)C(=O)N[C@@H](CO)C(N)=O [Mag(i + 4)15(A15E), GIGKFLHSAKKFGKEXVGEXBNS] (H-GIGKFLHSAKKFGKE[S5]VGE[S5][Nle]NS-NH2; staple 16-20)",3.1 µg/mL,25 µg/mL,50 µg/mL,25 µg/mL,3.8%,
"CCCC[C@H](NC(=O)[C@]1(C)CCCC=CCCC[C@](C)(NC(=O)[C@H](C)NC(=O)[C@H](CCCCN)NC(=O)CNC(=O)[C@H](Cc2ccccc2)NC(=O)[C@H](CCCCN)NC(=O)[C@H](CCCCN)NC(=O)[C@H](Cc2c[nH]cn2)NC(=O)[C@H](CO)NC(=O)[C@]2(C)CCCC=CCCC[C@](C)(NC(=O)[C@H](CCCCN)NC(=O)CN)C(=O)N[C@@H](CCCCN)C(=O)N[C@@H](Cc3ccccc3)C(=O)N[C@@H](CC(C)C)C(=O)N2)C(=O)N[C@@H](C(C)C)C(=O)NCC(=O)N[C@@H](CCC(=O)O)C(=O)N1)C(=O)N[C@@H](CC(N)=O)C(=O)N[C@@H](CO)C(N)=O [Mag(i + 4)2, 15(I2X, A9H)] (H-GK[S5]KFL[S5]SHKKFGKA[S5]VGE[S5][Nle]NS-NH2; staple 3-7, 16-20)",3.1 µg/mL,6.2 µg/mL,12.5 µg/mL,6.2 µg/mL,0.6%,completely eliminated
CCCC[C@H](NC(=O)[C@@H](NC(=O)[C@H](CCC(=O)O)NC(=O)CNC(=O)[C@@H](NC(=O)[C@]1(C)CCCC=CCCC[C@](C)(NC(=O)[C@H](CCCCN)NC(=O)[C@H](CCCCN)NC(=O)[C@H](C)NC(=O)[C@H](CO)NC(=O)[C@H](Cc2c[nH]cn2)NC(=O)[C@H](CC(C)C)NC(=O)[C@H](Cc2ccccc2)NC(=O)[C@H](CCCCN)NC(=O)CNC(=O)[C@@H](NC(=O)CN)[C@@H](C)CC)C(=O)NCC(=O)N[C@@H](CCCCN)C(=O)N[C@@H](C)C(=O)N1)C(C)C)[C@@H](C)CC)C(=O)N[C@@H](CC(N)=O)C(=O)N[C@@H](CO)C(N)=O [Mag(i + 4)11] (H-GIGKFLHSAKK[S5]GKA[S5]VGEI[Nle]NS-NH2; staple 12-16),3.1 µg/mL,6.2 µg/mL,12.5 µg/mL,6.2 µg/mL,17.5%,
"CCCC[C@H](NC(=O)[C@]1(C)CCCC=CCCC[C@](C)(NC(=O)[C@H](C)NC(=O)[C@H](CCCCN)NC(=O)[C@@H]2CCCN2C(=O)[C@H](Cc2ccccc2)NC(=O)[C@H](CCCCN)NC(=O)[C@H](CCCCN)NC(=O)[C@H](C)NC(=O)[C@H](CO)NC(=O)[C@H](Cc2c[nH]cn2)NC(=O)[C@H](CC(C)C)NC(=O)[C@H](Cc2ccccc2)NC(=O)[C@H](CCCCN)NC(=O)CNC(=O)[C@@H](NC(=O)CN)[C@@H](C)CC)C(=O)N[C@@H](C(C)C)C(=O)NCC(=O)N[C@@H](CCC(=O)O)C(=O)N1)C(=O)N[C@@H](CC(N)=O)C(=O)N[C@@H](CO)C(N)=O [Mag(i + 4)15(G13P), GIGKFLHSAKKFPKAXVGEXBNS] (H-GIGKFLHSAKKFPKA[S5]VGE[S5][Nle]NS-NH2; staple 16-20)",3.1 µg/mL,25 µg/mL,>50 µg/mL,25 µg/mL,2.0%,
